Data: US20250361546A1, “SCREENING METHODS FOR RNA-CONTROLLING COMPOUNDS” (Veritas In Silico Inc., priority 2018, published 2025)

How the values were obtained:
Type in all cases: binding
[1] = test system: Survivin-native+ type probe (Cy5/BHQ2); assay: FRET probe Tm measurement with single compounds and compound mixture (Example 6); settings: for ΔTm: 100 μM compound per compound, 50 nM RNA
Description: (§1) A-4-G_Cy5/BHQ2 probe and the Survivin-native+type probe modified with Cy5 at the 5′ end and BHQ2 at the 3′ end were prepared as shown in Examples 2 and 5.
(§2) The final levels were 50 nM RNA, 20 mM phosphate buffer (pH 6 5), 50 mM KCl, 1% DMSO, 0.1 μg/μl Bovine Serum Albumin (Takara Bio), or 0.05%-0.1% Tween-20, or 0.05%-0.1% Triton X-100. Further, if a low-molecular weight compound was included, 10 μl solutions were mixed to give 100 μM compound per compound and incubated at room temperature for 10 minutes.
(§3) The solutions were dispensed into a 384 well plate, and the plate was kept in a qPCR machine (manufactured by CFX 384 Touch (Bio-Rad Co., Ltd.) for 15 seconds after the temperature was raised to 95° C., which was rapidly cooled to 4° C. and kept for 2 minutes, and then kept at 25° C. for 5 minutes. Then, it was raised to over 95° C. about 40 minutes, and the fluorescence output was measured every 1° C. in 10 seconds. For numerical differentiation of the fluorescence output, a total of seven points from the measured temperature T to plus or minus 3° C. were approximated to a straight line by the least squares method, and the slope was defined as the slope (D1) at the point of the measured temperature T. Similarly, the value of D1 was again subjected to numerical differentiation in the same manner, and the slope (D2) at the point of the measured temperature T was obtained. Here, in parts where the D1 value was 10 or more, the measured temperature T_D1MAX was obtained with D1 at maximum. A total of seven points from this measured temperature T_D1MAX to plus and minus 3° C. were used to calculate the value of T_INF at Y=0 by setting X as T and Y as D2 when the seven points were actually approximated to the line by least squares, and this was set as the Tm value. In addition, the difference (Tm−Tm_NO) in the Tm value (Tm_NO) between wells containing the compound and wells without it was acquired as ΔTm.

[2] = test system: A-4-G_Cy5/BHQ2 probe; assay: as above; settings: for ΔTm: 100 μM compound per compound, 50 nM RNA
Description: as §1, §2, §3

[3] = test system: FMNA_Alexa532/BHQ1; assay: FRET probe Tm measurement, single probe and 4-probe mixture (Example 5); settings: 100 μM compound
Description: • FRET probe with HEX-equivalent Alexa 532 at the 5′ end and BHQ1 modification at the 3′ end
(§4) The final levels were 50 nM RNA, 20 mM phosphate buffer (pH 6 5), 50 mM KCl, 1% DMSO, 0.1 μg/μl Bovine Serum Albumin (Takara Bio) or 0.05%-0.1% Tween-20, or 0.05%-0.1% Triton X-100 per probe. In addition, 10 μl solutions were mixed to make 100 μM compound if small compounds were included and incubated at room temperature for 10 minutes.
as §3
(§5) This work was carried out for single-probe wells and four-probe wells, respectively, to obtain the Tm and ΔTm values shown in Table 6 below.

[4] = test system: TAR21-G3_Texas Red/BHQ2; assay: as above; settings: 100 μM compound
Description: • FRET probe with Texas Red at the 5′ end and BHQ2 modification at the 3′ end
as §4, §3, §5

[5] = test system: A-4-G_Cy5/BHQ2; assay: as above; settings: 100 μM compound
Description: (§6) Four FRET probes with fluorescent modifications corresponding to four wavelengths detectable by a measuring device (CFX384 Touch manufactured by Bio-Rad) were prepared. • FRET probe with Cy5 at the 5′ end and BHQ2 modification at the 3′ end
as §4, §3, §5

[6] = test system: MGA-N_FAM/BHQ1; assay: as above; settings: 100 μM compound
Description: • FRET probe with FAM at the 5′ end and BHQ1 modification at the 3′ end
as §4, §3, §5

[7] = test system: A-4-G_Cy5/BHQ2, MGA-N_FAM/BHQ1, FMNA_Alexa532/BHQ1, TAR21-G3_Texas Red/BHQ2; assay: FRET probe Tm measurement, summary over four probes (Example 5); settings: both single probes and mixed probes; 100 μM compound
Description: as §6
as §4, with “minutes. […]” for “minutes.”

[8] = 4-probe mixture, HEX detection, 50 nM RNA per probe
[9] = 4-probe mixture, Texas Red detection, 50 nM RNA per probe
[10] = 4-probe mixture, Cy5 detection, 50 nM RNA per probe
[11] = 4-probe mixture, FAM detection, 50 nM RNA per probe

For `CC1CCc2c(N3CCC(O)CC3)c(F)cc3c(=O)c(C(=O)O)cn1c23` (centres unmarked) [NDFX, nadifloxacin], the “change of Tm value (in words)” value [1] was “does not cause changes in the Tm value”, the ΔTm ([1]; Table 7, SV-NL) was 0.01 and the ΔTm ([1]; rounded) was 0.0 °C. The “change of Tm value (in words)” value [2] was “does not cause changes in the Tm value”, the ΔTm ([2]; Table 7, A-4-G) was 0.15 and the ΔTm ([2]; rounded) was 0.2 °C.

In the case of `O=C(O)c1cn(C2CC2)c2cc(N3CCNCC3)c(F)cc2c1=O` [CPFX, ciprofloxacin], the “Tm (° C.) with compound” value [3, 8] is reported as 78.07 °C, the “ΔTm (° C.)” value [3, 8] is reported as −0.02 °C and the “Tm (° C.) with compound” value ([3]; Single probe, 50 nM RNA) is reported as 78.03 °C. The “ΔTm (° C.)” value ([3]; Single probe, 50 nM RNA) was 0.09 °C, the “Tm (° C.) with compound” value [4, 9] was 85.75 °C and the “ΔTm (° C.)” value [4, 9] was −0.02 °C. For the same compound, the “Tm (° C.) with compound” value ([4]; Single probe, 50 nM RNA) was 85.80 °C, the “ΔTm (° C.)” value ([4]; Single probe, 50 nM RNA) was 0.07 °C and the “Tm (° C.) with compound” value [5, 10] was 68.96 °C. For the same compound, the “ΔTm (° C.)” value [5, 10] was 1.46 °C, the “Tm (° C.) with compound” value ([5]; Single probe, 50 nM RNA) was 68.78 °C and the “ΔTm (° C.)” value ([5]; Single probe, 50 nM RNA) was 1.41 °C. The “Tm (° C.) with compound” value [6, 11] was 74.22 °C, the “ΔTm (° C.)” value [6, 11] was 0.11 °C and the “Tm (° C.) with compound” value ([6]; Single probe, 50 nM RNA) was 74.03 °C. For the same compound, the “ΔTm (° C.)” value ([6]; Single probe, 50 nM RNA) was 0.33 °C and the “Tm increase (in words)” value [7] was “Tm increase was obtained only at wavelengths corresponding to A-4-G_Cy5/BHQ2”.
